Experimental data from patent publication US11433090B2, “mTOR-inhibitor-containing medicine for treating or preventing ophthalmic symptoms, disorders, or diseases, and application thereof” (The Doshisha, priority 2017, dated 2022).

Legend:
mTOR = mTOR expression at protein level in iFECD (western blot); assay type: cell-based, human; conditions: 3 pmol mTOR siRNA, FIG. 6
Method: (§1) The medium was removed from a culture dish in which iFECDs were being cultured, and the cells were supplemented with 1×PBS (−) that was preheated to 37° C., and were washed. This was repeated twice. The cells were supplemented again with 1×PBS (−) and incubated for 3 minutes at 37° C. (5% CO2). After removing the PBS (−), the cells were supplemented with 0.05% Trypsin-EDTA (Nacalai Tesque, 32778-34) and incubated for 5 minutes at 37° C. (5% CO2). The cells were then suspended in a medium, and collected by centrifugation at 1500 rpm for 3 minutes. DMEM (Nacalai Tesque, 08456-36)+10% FBS (Biowest, S1820-500)+1% P/S (Nacalai Tesque, 26252-94) was used as the medium.
iFECDs were seeded on a 12-well plate at a ratio of 3×10^4 cells per well and cultured for 24 hours at 37° C. (5% CO2) (medium: DMEM+10% FBS+1% P/S). After 24 hours, the medium was removed. Lipofectamine (invitrogen, 92008) and 3 pmol of mTOR siRNA (Ambion, AS026M0L) were added to culture the cells for 24 hours (medium: OptiMEM-I (invitrogen, 31985-088)). The mTOR siRNA that was used has a sense strand set forth in SEQ ID NO: 1 and an antisense strand set forth in SEQ ID NO: 2. […]
5 μg of the extracted protein was separated by SDS-PAGE and transferred onto a nitrocellulose membrane. […] The detected band strength was analyzed with a lumino image analyzer LAS-4000 mini (Fuji Film) and ImageQuant™ software (GE Healthcare).

S6K = assay: Western blot of S6K phosphorylation after TGF-β2 stimulation in iFECD; assay type: cell-based, human; conditions: 3 pmol mTOR siRNA, FIG. 6
Method: as §1
iFECDs were seeded on a 12-well plate at a ratio of 7×10^4 cells per well and cultured for 24 hours at 37° C. (5% CO2) (DMEM+10% FBS+1% P/S was used as the medium). After 24 hours, the medium was removed. Rapamycin was added to culture the cells for 24 hours. (DMEM+2% FBS+1% P/S was used as the medium). After 24 hours, the medium was removed. A medium containing 10 ng/ml of Recombinant Human TGF-β2 (Wako, 200-19911) and rapamycin was added to culture the cells for 24 hours. […]
8 μg of the extracted protein was separated by SDS-PAGE and transferred onto a nitrocellulose membrane. […] The detected band strength was analyzed with a lumino image analyzer LAS-4000 mini (Fuji Film) and ImageQuant™ software (GE Healthcare). […]

## mTOR siRNA: siRNA against mTOR gene (Ambion, AS026M0L); sense strand SEQ ID NO: 1, antisense strand SEQ ID NO: 2 (sense CAUUCGCAUUCAGUCCAUATT; antisense UAUGGACUGAAUGCGAAUGAT; chemistry not given here)
mTOR
  mTOR expression, protein level (western blot): suppression was found
S6K
  phosphorylation of S6K at protein level, western blot: suppressed
